Measured values reported in patent US20150141336A1, “Pancreatic Peptide Compounds and Use” (Novo Nordisk A/S, priority 2012, published 2015).
Numbered stars: 1 amine (or outer) side, 2 acyl side, 3 side chain; on linkers, the order of the positions; unused ones are H or OH. Side chains are listed from the residue outwards. Peptide text beside a SMILES is read from it. * marks the point of attachment. C18 diacid = O=C(O)CCCCCCCCCCCCCCCCC(=O)*; γGlu = O=C(O)[C@H](CCC(=O)[*:2])N[*:1]; AEEA = NCCOCCOCC(=O)O

assay: Assay (II) PK i.v. minipig, in vivo half-life; set-up: species or system Göttingen mini-pigs; details: male, Göttingen, minipig, iv
Method: An assay useful for measuring the pharmacokinetic (PK) profile of the PP peptide is the following mini-pig PK assay.
Five male Göttingen mini-pigs weighing approximately 18 to 22 kg from Ellegaard Göttingen Minipigs NS, Denmark are included in the study. The mini-pigs have two central venous catheters inserted which are used for intra venous (i.v.) dosing and blood sampling. The test compound is dissolved in 50 mM K2HPO4, 0.05% tween 80, pH=8.0 to a concentration of 180 nmol/ml. For comparison a control compound, such as human PP(1-36), may be administered. The pigs are dosed with 6 nmol test compound/kg body weight. Blood samples are taken at the following time points: pre-dose, 30 minutes, 1, 2, 4, 8, 24, 48, 72, 96, 120, 168 and 240 hours post dosing. The blood samples were collected into test tubes containing EDTA buffer for stabilization and kept on ice for max. 20 minutes before centrifugation. The centrifugation procedure to separate plasma may be: 4° C., approx. 2500 g for 10 minutes. Plasma is collected and immediately transferred to Micronic tubes stored at −20° C. until assayed.
The test compounds were assayed in plasma by Turbulent Flow Chromatography coupled to Liquid Chromatography with subsequent Tandem Mass Spectrometric Detection (TFC/LC/MS/MS). Positive mode ionization and Multiple Reaction Monitoring (MRM) of a multiple protonated species fragmented to a singly charged ion was employed for selectivity. The selectivity of the method allows multiple compounds to be quantified in one sample.
The concentrations of the test compound in samples of unknown concentration were calculated using the peak area as a function of amount. Calibration graphs based on plasma samples spiked with the analyte were constructed by regression analysis. Typical dynamic range for standard assay was 1-2000 nmol/I. The method performance was assured by co-assaying quality control (QC) samples in duplicate at three concentration levels.
Stock and working solutions of analytes were prepared in plasma and incubated by 37° C. for 1 hour.
Sample Preparation: 40.0 μl EDTA-plasma was added 160 μl 50% methanol, 1% formic acid, then vortexed and centrifuged at 16457 g at 4° C. for 20 minutes. The supernatant was transferred to a 96 well plate, plates incubated with 0.4% BSA, 37° C. for ½ hour. Injection volume was 25 μl.
The analysis was carried out on a Sciex API 3000 mass spectrometer (MDS/Sciex, Concord, ON, Canada) using a TurbolonSpray interface. The TFC/LC system consisted of two Flux Rheos 2000 quaternary pumps, a Cohesive VIM module (Cohesive Technologies, Franklin, Mass., USA) and a CTC LC/PAL auto sampler (CTC Analytics, Zingen, Switzerland). The centrifuge employed was a HettichMikro 22R (A. Hettich, Tuttlingen, Germany). For sample clean up a TurboFlow C8 column (0.5×50 mm) (Cohesive Technologies/Thermofisher) was used and the LC separation was done on a Proteo 4 μm column (2.0×50 mm) (Phenomenex, Torrance, Calif., USA). Eluents were isocratic and gradient combinations of methanol, acetonitril, Milli-Q water and formic acid.
Non-compartmental analysis (NCA): Plasma concentration-time profiles are analyzed by non-compartmental pharmacokinetics analysis (NCA) using WinNonlin Professional 5.0 (Pharsight Inc., Mountain View, Calif., USA). NCA is performed using the individual plasma concentration-time profiles from each animal.

Row | Compound | Half-life minipig, Assay (II) [h]
1 | CC[C@H](C)[C@H](NC(=O)[C@H](Cc1ccc(O)cc1)NC(=O)[C@H](CCCNC(=N)N)NC(=O)[C@H](CCCNC(=N)N)NC(=O)[C@H](CC(C)C)NC(=O)[C@H](CC(=O)O)NC(=O)[C@H](C)NC(=O)[C@H](C)NC(=O)[C@H](Cc1ccc(O)cc1)NC(=O)[C@H](CCC(N)=O)NC(=O)[C@H](C)NC(=O)[C@H](CCSC)NC(=O)[C@H](CCC(N)=O)NC(=O)[C@H](CCC(=O)O)NC(=O)[C@@H]1CCCN1C(=O)[C@@H](NC(=O)[C@H](C)NC(=O)[C@H](CC(N)=O)NC(=O)[C@H](CC(=O)O)NC(=O)CNC(=O)[C@@H]1CCCN1C(=O)[C@H](Cc1ccc(O)cc1)NC(=O)[C@@H](NC(=O)[C@@H]1CCCN1C(=O)[C@H](CCC(=O)O)NC(=O)[C@H](CC(C)C)NC(=O)[C@@H]1CCCN1C(=O)COCCOCCNC(=O)COCCOCCNC(=O)CC[C@H](NC(=O)CCCCCCCCCCCCCCCCC(=O)O)C(=O)O)C(C)C)[C@@H](C)O)C(=O)N[C@@H](CC(N)=O)C(=O)N[C@@H](CCSC)C(=O)N[C@@H](CC(C)C)C(=O)N[C@H](C(=O)N[C@@H](CCCNC(=N)N)C(=O)N1CCC[C@H]1C(=O)N[C@@H](CCCNC(=N)N)C(=O)N[C@@H](Cc1ccc(O)cc1)C(N)=O)[C@@H](C)O [Compound AF] | 36

same assay, conditions: male, Göttingen, minipig, iv, Half-life minipig, Assay (II)

Row | Compound | half-life [h]
2 | CC[C@H](C)[C@H](NC(=O)[C@H](Cc1ccc(O)cc1)NC(=O)[C@H](CCCNC(=N)N)NC(=O)[C@H](CCCNC(=N)N)NC(=O)[C@H](CC(C)C)NC(=O)[C@H](CC(=O)O)NC(=O)[C@H](C)NC(=O)[C@H](C)NC(=O)[C@H](Cc1ccc(O)cc1)NC(=O)[C@H](CCC(N)=O)NC(=O)[C@H](C)NC(=O)[C@H](CCSC)NC(=O)[C@H](CCC(N)=O)NC(=O)[C@H](CCC(=O)O)NC(=O)[C@@H]1CCCN1C(=O)[C@@H](NC(=O)[C@H](C)NC(=O)[C@H](CC(N)=O)NC(=O)[C@H](CC(=O)O)NC(=O)CNC(=O)[C@@H]1CCCN1C(=O)[C@H](Cc1ccc(O)cc1)NC(=O)[C@@H](NC(=O)[C@@H]1CCCN1C(=O)[C@H](CCC(=O)O)NC(=O)[C@@H](N)CC(C)C)C(C)C)[C@@H](C)O)C(=O)N[C@@H](CC(N)=O)C(=O)N[C@@H](CCSC)C(=O)N[C@@H](CC(C)C)C(=O)N[C@@H](CCCCNC(=O)COCCOCCNC(=O)COCCOCCNC(=O)CC[C@H](NC(=O)CCCCCCCCCCCCCCCCC(=O)O)C(=O)O)C(=O)N[C@@H](CCCNC(=N)N)C(=O)N1CCC[C@H]1C(=O)N[C@@H](CCCNC(=N)N)C(=O)N[C@@H](Cc1ccc(O)cc1)C(N)=O [Compound AJ] (H-LEPVYPGDNATPEQMAQYAADLRRYINMLK([AEEA-AEEA-γGlu-C18 diacid])RPRY-NH2; N-terminus and C-terminus assumed) | 80
3 | CC[C@H](C)[C@H](NC(=O)[C@H](Cc1ccc(O)cc1)NC(=O)[C@H](CCCNC(=N)N)NC(=O)[C@H](CCCNC(=N)N)NC(=O)[C@H](CC(C)C)NC(=O)[C@H](CC(=O)O)NC(=O)[C@H](C)NC(=O)[C@H](C)NC(=O)[C@H](Cc1ccc(O)cc1)NC(=O)[C@H](CCC(N)=O)NC(=O)[C@H](C)NC(=O)[C@H](CCSC)NC(=O)[C@H](CCC(N)=O)NC(=O)[C@H](CCC(=O)O)NC(=O)[C@@H]1CCCN1C(=O)[C@@H](NC(=O)[C@H](C)NC(=O)[C@H](CC(N)=O)NC(=O)[C@H](CC(=O)O)NC(=O)CNC(=O)[C@@H]1CCCN1C(=O)[C@H](Cc1ccc(O)cc1)NC(=O)[C@@H](NC(=O)[C@@H]1CCCN1C(=O)[C@H](CCC(=O)O)NC(=O)[C@@H](N)CC(C)C)C(C)C)[C@@H](C)O)C(=O)N[C@@H](CC(N)=O)C(=O)N[C@@H](CCSC)C(=O)N[C@@H](CCCCNC(=O)COCCOCCNC(=O)COCCOCCNC(=O)CC[C@H](NC(=O)CCCCCCCCCCCCCCCCC(=O)O)C(=O)O)C(=O)N[C@H](C(=O)N[C@@H](CCCNC(=N)N)C(=O)N1CCC[C@H]1C(=O)N[C@@H](CCCNC(=N)N)C(=O)N[C@@H](Cc1ccc(O)cc1)C(N)=O)[C@@H](C)O [Compound AK] (H-LEPVYPGDNATPEQMAQYAADLRRYINMK([AEEA-AEEA-γGlu-C18 diacid])TRPRY-NH2; N-terminus and C-terminus assumed) | 80
4 | CC[C@H](C)[C@H](NC(=O)[C@H](Cc1ccc(O)cc1)NC(=O)[C@H](CCCNC(=N)N)NC(=O)[C@H](CCCNC(=N)N)NC(=O)[C@H](CC(C)C)NC(=O)[C@H](CC(=O)O)NC(=O)[C@H](C)NC(=O)[C@H](C)NC(=O)[C@H](Cc1ccc(O)cc1)NC(=O)[C@H](CCC(N)=O)NC(=O)[C@H](C)NC(=O)[C@H](CCSC)NC(=O)[C@H](CCC(N)=O)NC(=O)[C@H](CCC(=O)O)NC(=O)[C@@H]1CCCN1C(=O)[C@@H](NC(=O)[C@H](C)NC(=O)[C@H](CC(N)=O)NC(=O)[C@H](CC(=O)O)NC(=O)CNC(=O)[C@@H]1CCCN1C(=O)[C@H](Cc1ccc(O)cc1)NC(=O)[C@@H](NC(=O)[C@@H]1CCCN1C(=O)[C@H](CCC(=O)O)NC(=O)[C@@H](N)CC(C)C)C(C)C)[C@@H](C)O)C(=O)N[C@@H](CC(N)=O)C(=O)N[C@@H](CCCCNC(=O)COCCOCCNC(=O)COCCOCCNC(=O)CC[C@H](NC(=O)CCCCCCCCCCCCCCCCC(=O)O)C(=O)O)C(=O)N[C@@H](CC(C)C)C(=O)N[C@H](C(=O)N[C@@H](CCCNC(=N)N)C(=O)N1CCC[C@H]1C(=O)N[C@@H](CCCNC(=N)N)C(=O)N[C@@H](Cc1ccc(O)cc1)C(N)=O)[C@@H](C)O [Compound AL] (H-LEPVYPGDNATPEQMAQYAADLRRYINK([AEEA-AEEA-γGlu-C18 diacid])LTRPRY-NH2; N-terminus and C-terminus assumed) | 59

Second part, the molecule after the results:

Row | half-life [h] | Compound
5 | 45 | CC[C@H](C)[C@H](NC(=O)[C@H](Cc1ccc(O)cc1)NC(=O)[C@H](CCCNC(=N)N)NC(=O)[C@H](CCCNC(=N)N)NC(=O)[C@H](CC(C)C)NC(=O)[C@H](CC(=O)O)NC(=O)[C@H](C)NC(=O)[C@H](C)NC(=O)[C@H](Cc1ccc(O)cc1)NC(=O)[C@H](CCC(N)=O)NC(=O)[C@H](C)NC(=O)[C@H](CCSC)NC(=O)[C@H](CCC(N)=O)NC(=O)[C@H](CCC(=O)O)NC(=O)[C@@H]1CCCN1C(=O)[C@@H](NC(=O)[C@H](C)NC(=O)[C@H](CC(N)=O)NC(=O)[C@H](CC(=O)O)NC(=O)CNC(=O)[C@@H]1CCCN1C(=O)[C@H](Cc1ccc(O)cc1)NC(=O)[C@@H](NC(=O)[C@@H]1CCCN1C(=O)[C@H](CCC(=O)O)NC(=O)[C@H](CCCCNC(=O)COCCOCCNC(=O)COCCOCCNC(=O)CC[C@H](NC(=O)CCCCCCCCCCCCCCCCC(=O)O)C(=O)O)NC(=O)[C@@H]1CCCN1)C(C)C)[C@@H](C)O)C(=O)N[C@@H](CC(N)=O)C(=O)N[C@@H](CCSC)C(=O)N[C@@H](CC(C)C)C(=O)N[C@H](C(=O)N[C@@H](CCCNC(=N)N)C(=O)N1CCC[C@H]1C(=O)N[C@@H](CCCNC(=N)N)C(=O)N[C@@H](Cc1ccc(O)cc1)C(N)=O)[C@@H](C)O [Compound AE]
6 | 33 | CC[C@H](C)[C@H](NC(=O)[C@H](Cc1ccc(O)cc1)NC(=O)[C@H](CCCNC(=N)N)NC(=O)[C@H](CCCNC(=N)N)NC(=O)[C@H](CC(C)C)NC(=O)[C@H](CC(=O)O)NC(=O)[C@H](C)NC(=O)[C@H](C)NC(=O)[C@H](Cc1ccc(O)cc1)NC(=O)[C@H](CCC(N)=O)NC(=O)[C@H](C)NC(=O)[C@H](CCSC)NC(=O)[C@H](CCC(N)=O)NC(=O)[C@H](CCC(=O)O)NC(=O)[C@@H]1CCCN1C(=O)[C@@H](NC(=O)[C@H](C)NC(=O)[C@H](CC(N)=O)NC(=O)[C@H](CC(=O)O)NC(=O)CNC(=O)[C@@H]1CCCN1C(=O)[C@H](Cc1ccc(O)cc1)NC(=O)[C@@H](NC(=O)[C@@H]1CCCN1C(=O)[C@H](CCC(=O)O)NC(=O)[C@H](CC(C)C)NC(=O)[C@@H]1CCCN1C(=O)COCCOCCNC(=O)COCCOCCNC(=O)CC[C@H](NC(=O)CCCCCCCCCCCCCCCCC(=O)O)C(=O)O)C(C)C)[C@@H](C)O)C(=O)N[C@@H](CC(N)=O)C(=O)N[C@@H](CCSC)C(=O)N[C@@H](CC(C)C)C(=O)N[C@H](C(=O)N[C@@H](CCCNC(=N)N)C(=O)N1CCC[C@H]1C(=O)N[C@@H](CCCNC(=N)N)C(=O)N[C@@H](Cc1ccc(O)cc1)C(N)=O)[C@@H](C)O [Compound AF]
7 | 70 | CC[C@H](C)[C@H](NC(=O)[C@H](Cc1ccc(O)cc1)NC(=O)[C@H](CCCNC(=N)N)NC(=O)[C@H](CCCNC(=N)N)NC(=O)[C@H](CC(C)C)NC(=O)[C@H](CC(=O)O)NC(=O)[C@H](C)NC(=O)[C@H](C)NC(=O)[C@H](Cc1ccc(O)cc1)NC(=O)[C@H](CCC(N)=O)NC(=O)[C@H](C)NC(=O)[C@H](CCSC)NC(=O)[C@H](CCC(N)=O)NC(=O)[C@H](CCC(=O)O)NC(=O)[C@@H]1CCCN1C(=O)[C@@H](NC(=O)[C@H](C)NC(=O)[C@H](CC(N)=O)NC(=O)[C@H](CC(=O)O)NC(=O)CNC(=O)[C@@H]1CCCN1C(=O)[C@H](Cc1ccc(O)cc1)NC(=O)[C@@H](NC(=O)[C@@H]1CCCN1C(=O)[C@H](CCC(=O)O)NC(=O)[C@@H](N)CC(C)C)C(C)C)[C@@H](C)O)C(=O)N[C@@H](CCCCNC(=O)COCCOCCNC(=O)COCCOCCNC(=O)CC[C@H](NC(=O)CCCCCCCCCCCCCCCCC(=O)O)C(=O)O)C(=O)N[C@@H](CCSC)C(=O)N[C@@H](CC(C)C)C(=O)N[C@H](C(=O)N[C@@H](CCCNC(=N)N)C(=O)N1CCC[C@H]1C(=O)N[C@@H](CCCNC(=N)N)C(=O)N[C@@H](Cc1ccc(O)cc1)C(N)=O)[C@@H](C)O [Compound AM] (H-LEPVYPGDNATPEQMAQYAADLRRYIK([AEEA-AEEA-γGlu-C18 diacid])MLTRPRY-NH2; N-terminus and C-terminus assumed)
